Where two headings read alike, the source gives them in different places.

The source of these data is US8598357B2, “Benzodioxole piperidine compounds” (Hoffmann-La Roche Inc., priority 2011, dated 2013).

One assay deals with D2 receptor (Homo sapiens (Human), UniProt P14416). The experiment in a line: Radioligand binding assay ([3H]-spiperone) on membranes of HEK293 EBNA cells expressing human D2 receptor. The settings on record: human receptor in HEK293 EBNA cells; 0.7 nM [3H]-spiperone.
For another assay, the target named is D3 receptor (Homo sapiens (Human), UniProt P35462). The experiment in a line: Radioligand binding assay ([3H]-spiperone) on membranes of HEK293 EBNA cells expressing human D3 receptor.
The target in the next assay is 5-HT2A receptor (Homo sapiens (Human), UniProt P28223). The experiment in a line: Radioligand binding assay ([3H]-ketanserin) on membranes of HEK293 EBNA cells expressing human 5-HT2A receptor.
Setting [1] is: read-out: D3 Ki, human receptor in HEK293 EBNA cells, 0.5 nM [3H]-spiperone.
[2] abbreviates: read-out: 5HT2A Ki, human receptor in HEK293 EBNA cells, 1.1 nM [3H]-ketanserin.

D3 receptor, sequence (P35462 whole entry): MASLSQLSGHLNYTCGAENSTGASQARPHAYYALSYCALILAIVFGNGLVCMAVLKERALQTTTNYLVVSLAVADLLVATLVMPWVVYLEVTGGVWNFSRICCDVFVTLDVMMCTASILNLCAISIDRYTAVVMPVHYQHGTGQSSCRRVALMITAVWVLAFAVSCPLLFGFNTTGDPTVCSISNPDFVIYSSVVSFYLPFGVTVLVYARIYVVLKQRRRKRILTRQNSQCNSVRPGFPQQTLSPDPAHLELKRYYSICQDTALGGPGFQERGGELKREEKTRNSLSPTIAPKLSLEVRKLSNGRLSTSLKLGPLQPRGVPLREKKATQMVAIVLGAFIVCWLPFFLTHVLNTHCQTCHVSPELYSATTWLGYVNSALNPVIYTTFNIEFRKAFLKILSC
D2 receptor, sequence (P14416 whole entry): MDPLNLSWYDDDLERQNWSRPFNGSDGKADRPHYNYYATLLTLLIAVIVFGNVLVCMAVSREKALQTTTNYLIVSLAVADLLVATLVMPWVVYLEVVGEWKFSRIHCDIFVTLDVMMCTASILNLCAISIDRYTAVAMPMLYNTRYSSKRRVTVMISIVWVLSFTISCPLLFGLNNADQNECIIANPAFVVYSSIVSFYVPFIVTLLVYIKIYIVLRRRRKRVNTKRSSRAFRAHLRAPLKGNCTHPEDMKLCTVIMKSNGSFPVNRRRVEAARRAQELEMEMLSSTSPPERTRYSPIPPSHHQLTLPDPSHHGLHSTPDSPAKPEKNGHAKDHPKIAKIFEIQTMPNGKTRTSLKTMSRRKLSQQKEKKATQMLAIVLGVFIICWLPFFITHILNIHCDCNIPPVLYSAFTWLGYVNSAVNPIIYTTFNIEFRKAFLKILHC
Description for 5-HT2A receptor: (§1) HEK293 EBNA cells were transiently transfected with expression plasmids encoding for the human D2 or D3 or for the human 5-HT2A receptor, respectively. The cells were harvested 48 h post-transfection, washed three times with cold PBS and stored at −80° C. prior to use. The pellet was suspended in cold 50 mM Tris-HCl buffer containing 10 mM EDTA (pH 7.4) and was homogenized with a Polytron (Kinematica AG, Basel, Switzerland) for 20-30 sec at 12.000 rpm. After centrifugation at 48.000×g for 30 min at 4° C., the pellet was resuspended in cold 10 mM Tris-HCl buffer containing 0.1 mM EDTA (pH 7.4), homogenized, and centrifuged as above. This pellet was further resuspended in a smaller volume of ice cold 10 mM Tris-HCl buffer containing 0.1 mM EDTA (pH 7.4) and homogenized with a Polytron for 20-30 sec at 12.000 rpm. The protein content of this homogenate was determined with the Bio-Rad (Bradford) Protein Assay (Biorad Laboratories GmbH, München, Germany) according to the instructions of the manufacturer using gamma globulin as the standard. This homogenate was stored at −80° C. in aliquots and thawed immediately prior to use.
(§2) Aliquots of membrane preparations were thawed at RT, resuspended in assay buffer (D2, D3: 50 mM Tris-HCl, 120 mM NaCl, 5 mM MgCl2, 1 mM EDTA, 5 mM KCl, 1.5 mM CaCl2, pH=7.4; 5-HT2A: 50 mM Tris-HCl, 10 mM MgCl2, 1 mM EGTA, pH=7.4), homogenized with a Polytron for 20-30 sec at 12.000 rpm and adjusted to a final concentration of approximately 7.5 μg protein/well (D2, D3) and 15 μg protein/well (5-HT2A), respectively.
(§3) The nonspecific binding was determined with equally composed reaction mixtures in the presence of 10 μM unlabelled spiperone. Per well 45 μl of Microscint 40 (Perkin Elmer, Schwerzenbach, Switzerland) was added, plates for sealed, shaken for 20 min and counted for 3 min on a Topcount Microplate Scintillation Counter (Can berra Packard SA, Ziirich, Switzerland) with quenching correction.
(§4) The CPM value for each duplicate of a concentration of competing compound was averaged (y1), then the % specific binding was calculated according to the equation (((y1−non-specific)/(total binding−non-specific))×100). Graphs were plotted with the % specific binding using XLfit, a curve fitting program that iteratively plots the data using Levenberg-Marquardt algorithm. The single site competition analysis equation used was y=A+((B−A)/(1+((x/C)D))), where y is the % specific binding, A is the minimum y, B is the maximum y, C is the IC50, x is the log 10 of the concentration of the competing compound and D is the slope of the curve (the Hill Coefficient). […] The affinity constant (K) was calculated using the Cheng-Prusoff equation Ki=(IC50/1+([L]/Kd), where [L] is the concentration of radioligand and Kd is the dissociation constant of the radioligand at the receptor as determined by the saturation isotherm.
Description for D2 receptor: as §1, §2, §3, §4
Description for D3 receptor: as §1, §2, §3, §4

For `COC(C)CC(=O)N[C@H]1CC[C@H](CCN2CCC(c3cccc4c3OCO4)CC2)CC1` (stereo partly drawn) [Example 27, Trans-N-{4-[2-(4-Benzo[1,3]dioxol-4-yl-piperidin-1-yl)-ethyl]-cyclohexyl}-3-methoxy-butyramide], the Ki at D2 receptor worked out at 402 nM; on D3 receptor (setting [1]), 7.52 nM; on 5-HT2A receptor (read-out: 5HT2A Ki), 33.6 nM.

With `CCCC(=O)N[C@H]1CC[C@H](CCN2CCC(c3cccc4c3OCO4)CC2)CC1` [Example 25, Trans-N-{4-[2-(4-Benzo[1,3]dioxol-4-yl-piperidin-1-yl)-ethyl]-cyclohexyl}-butyramide], the Ki at D2 receptor is 277 nM; on D3 receptor (setting [1]), 5.7 nM; on 5-HT2A receptor (setting [2]), 35.8 nM.

Take `O=C(CC1CCCCO1)N[C@H]1CC[C@H](CCN2CCC(c3cccc4c3OCO4)CC2)CC1` (stereo partly drawn) [Example 22, Trans-N-{4-[2-(4-Benzo[1,3]dioxol-4-yl-piperidin-1-yl)-ethyl]-cyclohexyl}-2-(tetrahydro-pyran-2-yl)-acetamide]: the Ki amounted to 523 nM on D2 receptor, 9.35 nM on D3 receptor (setting [1]) and 15.6 nM at 5-HT2A receptor (read-out: 5HT2A Ki).

Consider `O=C(CC1COCCO1)N[C@H]1CC[C@H](CCN2CCC(c3cccc4c3OCO4)CC2)CC1` (stereo partly drawn) [Example 3, Trans-N-{4-[2-(4-Benzo[1,3]dioxol-4-yl-piperidin-1-yl)-ethyl]-cyclohexyl}-2-[1,4]dioxan-2-yl-acetamide], for which the Ki at D3 receptor (setting [1]) was found to be 8.88 nM; at 5-HT2A receptor (read-out: 5HT2A Ki), 13.9 nM.

Consider `O=C(CF)N[C@H]1CC[C@H](CCN2CCC(c3cccc4c3OCO4)CC2)CC1` [Example 76, Trans-N-{4-[2-(4-Benzo[1,3]dioxol-4-yl-piperidin-1-yl)-ethyl]-cyclohexyl}-2-fluoro-acetamide], for which the Ki was 230 nM on D2 receptor, 12.4 nM at D3 receptor (setting [1]) and 39.9 nM at 5-HT2A receptor (setting [2]).

`O=C(C[C@H]1CCCCO1)N[C@H]1CC[C@H](CCN2CCC(c3cccc4c3OCO4)CC2)CC1` [Example 41, Trans-N-{4-[2-(4-Benzo[1,3]dioxol-4-yl-piperidin-1-yl)-ethyl]-cyclohexyl}-2-(R)-tetrahydro-pyran-2-yl-acetamide]: the figures for the Ki at D2 receptor, at D3 receptor (setting [1]) and on 5-HT2A receptor (read-out: 5HT2A Ki) were 491 nM, 7.65 nM and 12.6 nM, respectively.

Turning to `CN1CCC(C(=O)N[C@H]2CC[C@H](CCN3CCC(c4cccc5c4OCO5)CC3)CC2)CC1` [Example 61, 1-Methyl-piperidine-4-carboxylic acid-trans-N-{4-[2-(4-benzo[1,3]dioxol-4-yl-piperidin-1-yl)-ethyl]-cyclohexyl}-amide], the Ki on D2 receptor was 150 nM; on D3 receptor (setting [1]), 35.1 nM; on 5-HT2A receptor (setting [2]) it was 5.91 nM.

Regarding `O=C(N[C@H]1CC[C@H](CCN2CCC(c3cccc4c3OCO4)CC2)CC1)c1ccnc2ccccc12` [Example 57, Quinoline-4-carboxylic acid-trans-N-{4-[2-(4-benzo[1,3]dioxol-4-yl-piperidin-1-yl)-ethyl]-cyclohexyl}-amide], the inhibition constant (Ki) was determined as 370 nM at D2 receptor, 6.16 nM on D3 receptor (setting [1]) and 23.1 nM at 5-HT2A receptor (setting [2]).

In the case of `O=C(N[C@H]1CC[C@H](CCN2CCC(c3cccc4c3OCO4)CC2)CC1)c1ccc2c(c1)OCCO2` [Example 58, 2,3-Dihydro-benzo[1,4]dioxine-6-carboxylic acid-trans-N-{4-[2-(4-benzo[1,3]dioxol-4-yl-piperidin-1-yl)-ethyl]-cyclohexyl}-amide], the inhibition constant (Ki) on D2 receptor was found to be 345 nM; on D3 receptor (setting [1]), 3.7 nM; at 5-HT2A receptor (read-out: 5HT2A Ki) it was 20.1 nM.

Turning to `O=C(N[C@H]1CC[C@H](CCN2CCC(c3cccc4c3OCO4)CC2)CC1)C1(C(F)(F)F)CC1` [Example 50, Trifluoromethyl-cyclopropanecarboxylic acid-trans-N-{4-[2-(4-benzo[1,3]dioxol-4-yl-piperidin-1-yl)-ethyl]-cyclohexyl}-amide], the Ki on D2 receptor was 246 nM; on D3 receptor (setting [1]), 40.9 nM; at 5-HT2A receptor (setting [2]), 19 nM.

As for `O=S(=O)(N[C@H]1CC[C@H](CCN2CCC(c3cccc4c3OCO4)CC2)CC1)c1ccccc1` [Example 70, Trans-N-{4-[2-(4-Benzo[1,3]dioxol-4-yl-piperidin-1-yl)-ethyl]cyclohexyl}-benzenesulfonamide], the figures for the Ki at D2 receptor, at D3 receptor (setting [1]) and on 5-HT2A receptor (read-out: 5HT2A Ki) were 63.5 nM, 3.65 nM and 52.2 nM, respectively.

Take `C[C@@H](O)C(=O)N[C@H]1CC[C@H](CCN2CCC(c3cccc4c3OCO4)CC2)CC1` [Example 64, (R)-trans-N-{4-[2-(4-Benzo[1,3]dioxol-4-yl-piperidin-1-yl)-ethyl]-cyclohexyl}-2-hydroxy-propionamide]: the inhibition constant Ki on D2 receptor was found to be 268 nM; on D3 receptor (setting [1]), 11.1 nM; on 5-HT2A receptor (setting [2]) it was 10.7 nM.

In the case of `O=S(=O)(N[C@H]1CC[C@H](CCN2CCC(c3cccc4c3OCO4)CC2)CC1)N1CCOCC1` [Example 79, Morpholine-4-sulfonic acid-Trans-N-{4-[2-(4-benzo[1,3]dioxol-4-yl-piperidin-1-yl)-ethyl]-cyclohexyl}-amide], the Ki at D2 receptor was determined as 229 nM; on D3 receptor (setting [1]) it was 6.11 nM; at 5-HT2A receptor (read-out: 5HT2A Ki), 56.1 nM.

In the case of `CO[C@H](C)C(=O)N[C@H]1CC[C@H](CCN2CCC(c3cccc4c3OCO4)CC2)CC1` [Example 34, Trans-(R)—N-{4-[2-(4-Benzo[1,3]dioxol-4-yl-piperidin-1-yl)-ethyl]-cyclohexyl}-2-methoxy-propionamide], the inhibition constant (Ki) was 504 nM at D2 receptor, 27.8 nM on D3 receptor (setting [1]) and 9.57 nM on 5-HT2A receptor (setting [2]).

Take `O=C(CC1(O)CCOCC1)N[C@H]1CC[C@H](CCN2CCC(c3cccc4c3OCO4)CC2)CC1` [Example 31, Trans-N-{4-[2-(4-Benzo[1,3]dioxol-4-yl-piperidin-1-yl)-ethyl]-cyclohexyl}-2-(4-hydroxy-tetrahydro-pyran-4-yl)-acetamide]: the Ki at D2 receptor came to 306 nM; on D3 receptor (setting [1]), 7.15 nM; at 5-HT2A receptor (setting [2]), 24.9 nM.

Consider `Cc1cc(CC(=O)N[C@H]2CC[C@H](CCN3CCC(c4cccc5c4OCO5)CC3)CC2)on1` [Example 19, Trans-N-{4-[2-(4-Benzo[1,3]dioxol-4-yl-piperidin-1-yl)-ethyl]-cyclohexyl}-2-(3-methyl-isoxazol-5-yl)-acetamide], for which the values for the inhibition constant Ki at D2 receptor, on D3 receptor (setting [1]) and on 5-HT2A receptor (setting [2]) were 516 nM, 1.19 nM and 19.8 nM, respectively.

For `O=C(C[C@@H]1CCCOC1)N[C@H]1CC[C@H](CCN2CCC(c3cccc4c3OCO4)CC2)CC1` [Example 42, Trans-N-{4-[2-(4-Benzo[1,3]dioxol-4-yl-piperidin-1-yl)-ethyl]-cyclohexyl}-2-(S)-tetrahydro-pyran-3-yl-acetamide], the figures for the inhibitory constant (Ki) on D2 receptor, on D3 receptor (setting [1]) and at 5-HT2A receptor (setting [2]) were 322 nM, 11.7 nM and 20.1 nM, respectively.

Take `COC1(C(=O)N[C@H]2CC[C@H](CCN3CCC(c4cccc5c4OCO5)CC3)CC2)CCCCC1` [Example 67, 1-Methoxy-cyclohexanecarboxylic acid-trans-N-{4-[2-(4-benzo[1,3]dioxol-4-yl-piperidin-1-yl)-ethyl]-cyclohexyl}-amide]: the Ki was 196 nM on D2 receptor, 38.6 nM on D3 receptor (setting [1]) and 11.6 nM on 5-HT2A receptor (setting [2]).

On to `O=C(C[C@@H]1CCCO1)N[C@H]1CC[C@H](CCN2CCC(c3cccc4c3OCO4)CC2)CC1` [Example 17, Trans-N-{4-[2-(4-Benzo[1,3]dioxol-4-yl-piperidin-1-yl)-ethyl]-cyclohexyl}-2-(S)-tetrahydro-furan-2-yl-acetamide], for which the results for the inhibition constant Ki on D2 receptor, on D3 receptor (setting [1]) and at 5-HT2A receptor (read-out: 5HT2A Ki) were 531 nM, 6.41 nM and 33.8 nM, respectively.

For the molecule `O=C(N[C@H]1CC[C@H](CCN2CCC(c3cccc4c3OCO4)CC2)CC1)C1(O)CCCCC1` [Example 66, 1-Hydroxy-cyclohexanecarboxylic acid-trans-N-{4-[2-(4-benzo[1,3]dioxol-4-yl-piperidin-1-yl)-ethyl]-cyclohexyl}-amide], the figures for the Ki on D2 receptor, on D3 receptor (setting [1]) and at 5-HT2A receptor (read-out: 5HT2A Ki) were 219 nM, 17.5 nM and 3.93 nM, respectively.

As to `O=C(C[C@@H]1CCCCO1)N[C@H]1CC[C@H](CCN2CCC(c3cccc4c3OCO4)CC2)CC1` [Example 40, Trans-N-{4-[2-(4-Benzo[1,3]dioxol-4-yl-piperidin-1-yl)-ethyl]-cyclohexyl}-2-(S)-tetrahydro-pyran-2-yl-acetamide], the figures for the Ki on D2 receptor, on D3 receptor (setting [1]) and on 5-HT2A receptor (read-out: 5HT2A Ki) were 422 nM, 9 nM and 27.9 nM, respectively.

For the molecule `CC(C)(O)CC(=O)N[C@H]1CC[C@H](CCN2CCC(c3cccc4c3OCO4)CC2)CC1` [Example 35, Trans-N-{4-[2-(4-Benzo[1,3]dioxol-4-yl-piperidin-1-yl)-ethyl]-cyclohexyl}-3-hydroxy-3-methyl-butyramide], the inhibition constant (Ki) is 282 nM on D2 receptor, 5.92 nM on D3 receptor (setting [1]) and 26.1 nM at 5-HT2A receptor (setting [2]).

For `O=C(N[C@H]1CC[C@H](CCN2CCC(c3cccc4c3OCO4)CC2)CC1)C(O)C(F)(F)F` (stereo partly drawn) [Example 12, Trans-N-{4-[2-(4-Benzo[1,3]dioxol-4-yl-piperidin-1-yl)-ethyl]-cyclohexyl}-3,3,3-trifluoro-2-hydroxy-propionamide], the Ki is 236 nM on D2 receptor, 8.45 nM on D3 receptor (setting [1]) and 14 nM on 5-HT2A receptor (read-out: 5HT2A Ki).

Consider `O=C(C[C@@H]1COCCO1)N[C@H]1CC[C@H](CCN2CCC(c3cccc4c3OCO4)CC2)CC1` (single isomer, unassigned) [Example 5, Trans-N-{4-[2-(4-Benzo[1,3]dioxol-4-yl-piperidin-1-yl)-ethyl]-cyclohexyl}-2-(R) or (S)-[1,4]dioxan-2-yl-acetamide], for which the inhibition constant (Ki) amounted to 9.5 nM on D3 receptor and 17 nM on 5-HT2A receptor.

With `O=C(C[C@H]1COCCO1)N[C@H]1CC[C@H](CCN2CCC(c3cccc4c3OCO4)CC2)CC1` (single isomer, unassigned) [Example 4, Trans-N-{4-[2-(4-Benzo[1,3]dioxol-4-yl-piperidin-1-yl)-ethyl]-cyclohexyl}-2-(S) or (R)-[1,4]dioxan-2-yl-acetamide], the figures for the Ki at D3 receptor and at 5-HT2A receptor were 9.79 nM and 11.9 nM, respectively.
